Assay results as given in EPA's ToxValDB 9.5 (doi:10.2903/j.efsa.2009.1167).

Experiments:
Canidae = conditions: chronic, Dog Other
Mus musculus = conditions: chronic; duration: 18 months; organ weight
[1] = chronic, duration: 2 years, histopathology: nonneoplastic
[2] = reproduction developmental, reproduction

## CCCCC(C#N)(Cn1cncn1)c1ccc(Cl)cc1 (stereo not given) [Myclobutanil]
Rattus norvegicus; [1]
  NOAEL: 2.5 mg/kg-day

## CC(C)(C)C(O)C(Oc1ccc(Cl)cc1)n1cncn1 (stereo not given) [Triadimenol]
Canidae; duration: 2 years
  NOAEL: 4 mg/kg-day

## CC(C1CC1)C(O)(Cn1cncn1)c1ccc(Cl)cc1 (stereo not given) [Cyproconazole]
Rattus norvegicus; chronic, organ weight
  NOAEL: 2 mg/kg-day
Rattus norvegicus; developmental, development
  NOAEL: 2 mg/kg-day

## Fc1ccc([C@@]2(Cn3cncn3)O[C@@H]2c2ccccc2Cl)cc1 [Epoxiconazole]
Mus musculus
  NOAEL: 0.8 mg/kg-day
Rattus norvegicus; [2]
  NOAEL: 2.3 mg/kg-day

## CCCC1COC(Cn2cncn2)(c2ccc(Cl)cc2Cl)O1 (stereo not given) [Propiconazole]
Rattus norvegicus; developmental, development
  NOAEL: 30 mg/kg-day
Rattus norvegicus; [2]
  NOAEL: > 2.8 mg/kg-day

## CC(C)(C)[C@@H](O)/C(=C\c1ccc(Cl)cc1Cl)n1cncn1 [Diniconazole-M]
Rattus norvegicus; [1]
  NOAEL: 5 mg/kg-day
Rattus norvegicus; developmental, development
  NOAEL: 5 mg/kg-day

## C[Si](Cn1cncn1)(c1ccc(F)cc1)c1ccc(F)cc1 [Flusilazole]
Canidae; duration: 1 years
  NOAEL: 0.2 mg/kg-day
Rattus norvegicus; reproduction developmental, organ weight
  NOAEL: 0.5 mg/kg-day

## CC(C)(C)C(O)(CCc1ccc(Cl)cc1)Cn1cncn1 (stereo not given) [Tebuconazole]
Canidae; histopathology: nonneoplastic
  NOAEL: 3 mg/kg-day

## CC(C)(C)C(=O)C(Oc1ccc(Cl)cc1)n1cncn1 (stereo not given) [Triadimefon]
Rattus norvegicus; acute
  NOAEL: 2 mg/kg-day
Rattus norvegicus; subchronic, duration: 13 weeks
  NOAEL: 3.4 mg/kg-day
